Key:
[1] = Dissolution of purified peptide in water; type: physicochemical
Description: SYRAPRO-2000, a peptide compound activator of protein phosphatase-2A1 was prepared by chemical synthesis on an automated Solid Phase Peptide Synthesizer. Following synthesis, it was cleaved and purified by reverse phase HPLC on a C18 column. The structure of SYRAPRO-2000 is: […]. The molecular mass of SYRAPRO-2000 was determined by MALDI ToF MS. The purified material, a white solid was readily dissolved in and reconstituted in water at ˜1-2 mg/ml. For its use as an in vitro activator of protein phosphatase-2A1, it is dissolved in the assay buffer which consisted of 0.02 ml of enzyme solution in 50 mM Imidazole-Cl pH 7.2, 0.2 mM EGTA, 0.1% (v/v) 2-mercaptoethanol and 1 mg/ml bovine serum albumin. For its use on intact cells, it is dissolved in the culture medium.

Jurkat cells = assay: Cell viability (tryphan blue) and cell death of Jurkat cells; type: cell-based, human; settings: 1000 nM
Description: (§1) Panel A, Jurkat cells (a CD^4+ T cell line) were grown in RPMI 1640 and 10% (v/v) fetal bovine serum. Cells (10^6 cells per ml) were treated (+) or not (−) with 1000 nM SYRAPRO-2000. Cell viability was then determined by counting the cells following tryphan blue staining after 1, 2 and 4 hours of incubation. Panel B, Following treatment with SYRAPRO-2000 for 1, 2 and 4 hours as indicated, Jurkat cells (10^6/ml) were washed with RPMI plus 2% fetal bovine serum and then deposited onto glass slides by cytospinning. Phase contrast images were then obtained with white light emission on a Zeiss Axioplan 2 imaging universal microscope (Thornwood, N.Y.). […]
(§2) Jurkat cells are grown in RPMI 1680 medium supplemented with 5% (v/v) fetal bovine serum and antibiotics and treated or not with 1 μM of SYRAPRO-2000 for 1 hour, 2 hours and 4 hours. Following treatment with SYRAPRO-2000, cell viability are then determined by counting the cells following tryphan blue staining. […]
(§3) Following treatment of cells with SYRAPRO-2000, cells were examined by phase contrast microscopy or by fluorescent microscopy following staining with FITC labeled annexin V (apoptotic cell death) and propidium iodide (oncolytic cell death). Cells were analyzed on a Zeiss Axioplan 2 imaging universal microscope (Thornwood, N.Y.). […] Green (FITC labeled annexin V) and red (propidium iodide) fluorescence images were obtained. […]

[2] = as above; type: cell-based, human; settings: human, Jurkat cells (CD4+ T cell line), 1000 nM, four hours of incubation, read-out: treated cells non viable (tryphan blue staining)
Description: as §1, §2, §3

[3] = Cell viability (tryphan blue) and cell death of SK-N-SH cells; type: cell-based, human; settings: human, SK-N-SH cells (neuroblastoma cell line), 2000 nM, 4 days of incubation, read-out: treated cells non viable (tryphan blue staining)
Description: (§4) Panel A, SK—N—SH cells (a human neuroblastoma cell line) were grown in DMEM and 5% (v/v) fetal bovine serum. Cells (10^6 cells per ml) were treated (+) or not (−) with 2000 nM SYRAPRO-2000. Cell viability was then determined by counting the cells following tryphan blue staining after 4, 8 and 12 days of incubation. Panel B, Following treatment with or without SYRAPRO-2000 for 8 days, SK—N—SH cells grown on slides were analyzed by phase contrast microscopy (Row A), by fluorescence microscopy following staining with FITC labeled annexin V (apoptotic cell death) (Row B) or propidium iodide (oncolytic cell death) on a on a Zeiss Axioplan 2 imaging universal microscope (Thornwood, N.Y.). Phase contrast images and Green (FITC labeled annexin V) and red (propidium iodide) fluorescence images were obtained. […]
(§5) SK—N—SH cells are grown in DMEM supplemented with 5% (v/v) fetal bovine serum and antibiotics and treated or not with 2 μM SYRAPRO-2000 for 8 days. Following treatment with SYRAPRO-2000, cell viability are then determined by counting the cells following tryphan blue staining. […] Following treatment with SYRAPRO-2000, cells grown on slides by were analyzed by phase contrast microscopy and fluorescence microscopy following staining with FITC labeled annexin V (an indicator of apoptotic cell death) or propidium iodide (an indicator of oncolytic or necrotic cell death). […]

SK—N—SH cells = assay: as above; type: cell-based, human; settings: 2000 nM, 8 days
Description: as §4, §5

Compound: CC[C@H](C)[C@H](NC(=O)[C@H](CCCNC(=N)N)NC(=O)[C@H](CO)NC(=O)[C@H](Cc1c[nH]cn1)NC(=O)[C@H](CCCNC(=N)N)NC(=O)[C@H](CS)NC(=O)CNC(=O)[C@@H](NC(=O)[C@H](CCCNC(=N)N)NC(=O)[C@H](Cc1ccccc1)NC(=O)[C@@H](N)Cc1c[nH]cn1)[C@@H](C)CC)C(=O)NCC(=O)N[C@H](C(=O)N[C@H](C(=O)N[C@@H](CCCNC(=N)N)C(=O)N[C@@H](CCC(N)=O)C(=O)N[C@@H](CCCNC(=N)N)C(=O)N[C@@H](CCCNC(=N)N)C(=O)N[C@@H](C)C(=O)N[C@@H](CCCNC(=N)N)C(=O)N[C@@H](CC(N)=O)C(=O)NCC(=O)N[C@@H](C)C(=O)N[C@@H](CO)C(=O)N[C@@H](CCCNC(=N)N)C(=O)N[C@@H](CO)C(=O)O)[C@@H](C)O)C(C)C [SYRAPRO-2000]
- readily dissolved and reconstituted in water [1]: 1 to 2 mg/mL
- mode of cell death (phase contrast microscopy) (Jurkat cells): oncolysis
- cytotoxicity at 4 h, 1 µM [2]: ~60%
- cytotoxicity at 4 days, 2 µM [3]: ~50%
- mode of cell death (FITC-annexin V and propidium iodide staining) (SK—N—SH cells): apoptosis and oncolysis
